Consider 19 molecules from patent US20240317721A1, “PYRAZOLYL DERIVATIVES AS INHIBITORS OF THE KRAS MUTANT PROTEIN” (NOVARTIS AG, priority 2021, published 2024).

A value given as a limit tells only on which side of the number the result lay.

Broadly, the IC50 is the concentration that inhibits the measured activity by half.

The experiment has as its target KRasG12C (M1-K169, biotinylated on the N-terminus) (Homo sapiens (Human), UniProt P01116, G12C). The experiment can be described thus: Covalent competition assay: scintillation proximity assay (SPA) quantifying covalent modification of KRASG12C. The experiment is classed as binding. As to conditions: competition with radiolabeled covalent probe (Compound B/Compound A), 2 hours incubation, 10 nM KRasG12C. An outline of the steps: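 Test compounds compete with a radiolabeled covalent probe for modification of N-terminally biotinylated KRasG12C(M1-K169):GDP, final 10 nM protein, 25 nM radio-ligand, 475 nM unlabelled ligand, 2 h with agitation in 20 mM Tris-HCl pH 7.5, 150 mM NaCl, 0.1 mM MgCl2, 0.01% Tween-20.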
A general note: In a scintillation proximity assay essentially only radioactivity close to the scintillant gives light.
In the case of `C=CC(=O)N1CC2(CC(n3nc(N4CCC(C(=O)N5CCN(C)CC5)CC4(C)C)c(-c4c(Cl)c(Cl)cc5[nH]ncc45)c3C)C2)C1` (single isomer, unassigned) [Example 211b, 1-(6-(4-(5,6-dichloro-1H-indazol-4-yl)-3-(2,2-dimethyl-4-(4-methylpiperazine-1-carbonyl)piperidin-1-yl)-5-methyl-1H-pyrazol-1-yl)-2-azaspiro[3.3]heptan-2-yl)prop-2-en-1-one], the IC50 was 8 nM.

`C=CC(=O)N1CC2(CC(n3nc(N4CCC(N5C[C@H]6C[C@@H]5CN6S(C)(=O)=O)CC4(C)C)c(-c4c(Cl)c(Cl)cc5[nH]ncc45)c3C)C2)C1` (single isomer, unassigned) [Example 212a]: the IC50 was 358 nM.

Regarding `C=CC(=O)N1CC2(CC(n3nc(N4CCC(N5C[C@H]6C[C@@H]5CN6S(C)(=O)=O)CC4(C)C)c(-c4c(Cl)c(Cl)cc5[nH]ncc45)c3C)C2)C1` (single isomer, unassigned) [Example 212b], the IC50 amounted to 12 nM.

On to `C=CC(=O)N1CC2(CC(n3nc(N4CC[C@@H](CN5CCOCC5)CC4(C)C)c(-c4c(Cl)c(Cl)cc5[nH]ncc45)c3C)C2)C1` (single isomer, unassigned) [Example 213a], for which the IC50 was found to be 3500 nM.

Regarding `C=CC(=O)N1CC2(CC(n3nc(N4CC[C@@H](CN5CCOCC5)CC4(C)C)c(-c4c(Cl)c(Cl)cc5[nH]ncc45)c3C)C2)C1` (single isomer, unassigned) [Example 213b], the IC50 was 12 nM.

Consider `C=CC(=O)N1CC2(CC(n3nc(N4CC[C@H](CN5CCOCC5)CC4(C)C)c(-c4c(Cl)c(Cl)cc5[nH]ncc45)c3C)C2)C1` (single isomer, unassigned) [Example 214a], for which the IC50 is 290 nM.

Regarding `C=CC(=O)N1CC2(CC(n3nc(N4CC[C@H](CN5CCOCC5)CC4(C)C)c(-c4c(Cl)c(Cl)cc5[nH]ncc45)c3C)C2)C1` (single isomer, unassigned) [Example 214b], the IC50 was determined as 679 nM.

For `C=CC(=O)N1CC2(CC(n3nc(N4CCC(CN5C[C@@H]6C[C@H]5CO6)CC4(C)C)c(-c4c(Cl)c(Cl)cc5[nH]ncc45)c3C)C2)C1` (single isomer, unassigned) [Example 217a], the IC50 is 928 nM.

For the molecule `C=CC(=O)N1CC2(CC(n3nc(N4CCC(CN5C[C@@H]6C[C@H]5CO6)CC4(C)C)c(-c4c(Cl)c(Cl)cc5[nH]ncc45)c3C)C2)C1` (single isomer, unassigned) [Example 217b], the IC50 worked out at 8 nM.

`C=CC(=O)N1CC2(CC(n3nc(N4CCC(CN5CCOCC5)C4(C)C)c(-c4c(Cl)c(Cl)cc5[nH]ncc45)c3C)C2)C1` (single isomer, unassigned) [Example 218a, 1-(6-(4-(5,6-dichloro-1H-indazol-4-yl)-3-(2,2-dimethyl-3-(morpholinomethyl)pyrrolidin-1-yl)-5-methyl-1H-pyrazol-1-yl)-2-azaspiro[3.3]heptan-2-yl)prop-2-en-1-one]: the IC50 is 81 nM.

Consider `C=CC(=O)N1CC2(CC(n3nc(N4CCC(CN5CCOCC5)C4(C)C)c(-c4c(Cl)c(Cl)cc5[nH]ncc45)c3C)C2)C1` (single isomer, unassigned) [Example 218b, 1-(6-(4-(5,6-dichloro-1H-indazol-4-yl)-3-(2,2-dimethyl-3-(morpholinomethyl)pyrrolidin-1-yl)-5-methyl-1H-pyrazol-1-yl)-2-azaspiro[3.3]heptan-2-yl)prop-2-en-1-one], for which the IC50 was over 5000 nM.

Regarding `C=CC(=O)N1CC2(CC(n3nc(N4CCC(CN5CCOCC5)C4(C)C)c(-c4c(Cl)c(Cl)cc5[nH]ncc45)c3C)C2)C1` (single isomer, unassigned) [Example 219a, 1-(6-(4-(5,6-dichloro-1H-indazol-4-yl)-3-(2,2-dimethyl-3-(morpholinomethyl)pyrrolidin-1-yl)-5-methyl-1H-pyrazol-1-yl)-2-azaspiro[3.3]heptan-2-yl)prop-2-en-1-one], the IC50 came to 1600 nM.

Consider `C=CC(=O)N1CC2(CC(n3nc(N4CCC(CN5CCOCC5)C4(C)C)c(-c4c(Cl)c(Cl)cc5[nH]ncc45)c3C)C2)C1` (single isomer, unassigned) [Example 219b, 1-(6-(4-(5,6-dichloro-1H-indazol-4-yl)-3-(2,2-dimethyl-3-(morpholinomethyl)pyrrolidin-1-yl)-5-methyl-1H-pyrazol-1-yl)-2-azaspiro[3.3]heptan-2-yl)prop-2-en-1-one], for which the IC50 was found to be 42 nM.

As for `C=CC(=O)N1CC2(CC(n3nc(N4CC=C(CN5CCOCC5)CC4(C)C)c(-c4c(Cl)c(Cl)cc5[nH]ncc45)c3C)C2)C1` (single isomer, unassigned) [Example 220a, 1-(6-(4-(5,6-dichloro-1H-indazol-4-yl)-3-(2,2-dimethyl-4-(morpholinomethyl)-3,6-dihydropyridin-1(2H)-yl)-5-methyl-1H-pyrazol-1-yl)-2-azaspiro[3.3]heptan-2-yl)prop-2-en-1-one], the IC50 is over 5000 nM.

Turning to `C=CC(=O)N1CC2(CC(n3nc(N4CC=C(CN5CCOCC5)CC4(C)C)c(-c4c(Cl)c(Cl)cc5[nH]ncc45)c3C)C2)C1` (single isomer, unassigned) [Example 220b, 1-(6-(4-(5,6-dichloro-1H-indazol-4-yl)-3-(2,2-dimethyl-4-(morpholinomethyl)-3,6-dihydropyridin-1(2H)-yl)-5-methyl-1H-pyrazol-1-yl)-2-azaspiro[3.3]heptan-2-yl)prop-2-en-1-one], the IC50 is 36 nM.

Regarding `C=CC(=O)N1CC2(CC(n3nc(N4CCC(CN5CCOCC5)CC4(C)COC)c(-c4c(Cl)c(Cl)cc5[nH]ncc45)c3C)C2)C1` (single isomer, unassigned) [Example 221a, 1-(6-(4-(5,6-dichloro-1H-indazol-4-yl)-3-(2-(methoxymethyl)-2-methyl-4-(morpholinomethyl)piperidin-1-yl)-5-methyl-1H-pyrazol-1-yl)-2-azaspiro[3.3]heptan-2-yl)prop-2-en-1-one], the IC50 is 5 nM.

As for `C=CC(=O)N1CC2(CC(n3nc(N4CCC(CN5CCOCC5)CC4(C)COC)c(-c4c(Cl)c(Cl)cc5[nH]ncc45)c3C)C2)C1` (single isomer, unassigned) [Example 221b, 1-(6-(4-(5,6-dichloro-1H-indazol-4-yl)-3-(2-(methoxymethyl)-2-methyl-4-(morpholinomethyl)piperidin-1-yl)-5-methyl-1H-pyrazol-1-yl)-2-azaspiro[3.3]heptan-2-yl)prop-2-en-1-one], the IC50 was 405 nM.

In the case of `C=CC(=O)N1CC2(CC(n3nc(N4CCC(CN5CCOCC5)CC4(C)CC)c(-c4c(Cl)c(C)cc5[nH]ncc45)c3C)C2)C1` (single isomer, unassigned) [Example 222a, 1-(6-(4-(5-chloro-6-methyl-1H-indazol-4-yl)-3-(2-ethyl-2-methyl-4-(morpholinomethyl)piperidin-1-yl)-5-methyl-1H-pyrazol-1-yl)-2-azaspiro[3.3]heptan-2-yl)prop-2-en-1-one], the concentration for half-maximal inhibition (IC50) amounted to 1100 nM.

Regarding `C=CC(=O)N1CC2(CC(n3nc(N4CCC(CN5CCOCC5)CC4(C)CC)c(-c4c(Cl)c(C)cc5[nH]ncc45)c3C)C2)C1` (single isomer, unassigned) [Example 222b, 1-(6-(4-(5-chloro-6-methyl-1H-indazol-4-yl)-3-(2-ethyl-2-methyl-4-(morpholinomethyl)piperidin-1-yl)-5-methyl-1H-pyrazol-1-yl)-2-azaspiro[3.3]heptan-2-yl)prop-2-en-1-one], the IC50 is 7 nM.
